Measurements from ChEMBL document CHEMBL1201862, “PubChem BioAssay data set” (2004).
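How tested: cells in 96-well plates exposed to compound for 48 hours at five concentrations. The concentration for 50% growth inhibition is given as GI50.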 Calls of active or inactive are those of the source. No stated cut-off is given here; in the data, active = GI50 up to about 1.1 µM and inactive = higher. Where a SMILES comes first, the peptide text is derived from it. [ ]: non-standard residue; d: D form. The star is where a group is joined. Iva = CC[C](C)(N)C(=O)O; Boc = CC(C)(C)OC(=O)*; X54 = C1CCC(=NO*)C1

How the values were obtained:
Assay in all cases: NCI-60 cell line screen, 48 h
BT-549 = system: BT-549
PC-3 = system: PC-3
MDA-N = system: MDA-N
Hs-578T = system: Hs-578T
DU-145 = system: DU-145
KM-20L2 = system: KM-20L2
HOP-18 = system: HOP-18
RXF 631 = system: RXF 631

Question: What does the source list for `COC(=O)/C=C\Sc1ccn(/C=C\C(=O)OC)c(=S)n1`?
Answer: GI50 (BT-549): 22.9 µM (inactive); GI50 (PC-3): 19.1 µM (inactive); GI50 (MDA-N): 27.3 µM (inactive); GI50 (Hs-578T): 25.5 µM (inactive); GI50 (DU-145): > 100 µM (inactive)

Question: Which GI50 (BT-549) does the source give for `C/C(=N/NC(=O)c1ccncc1)C(F)(F)F` here?
Answer: > 100 µM (inactive)

Question: What about the GI50 (PC-3) of the same compound?
Answer: > 100 µM (inactive)

Question: And the GI50 (Hs-578T)?
Answer: > 100 µM (inactive)

Question: What about the GI50 (DU-145) of the same compound?
Answer: > 100 µM (inactive)

Question: `CSc1cc(=O)n2c3ccccc3c3ccnc1c32` was tested. Which GI50 (KM-20L2) did it give?
Answer: > 61.8 µM (inactive)

Question: What does the source list for `OCC(O)COc1ccc(Br)cc1` (stereo not given)?
Answer: GI50 (HOP-18): > 100 µM (inactive); GI50 (RXF 631): > 100 µM (inactive); GI50 (KM-20L2): > 100 µM (inactive)

Question: With `CC(C(=O)O)c1cnn(-c2ccccc2)c1-n1cccc1` (stereo not given) as the compound, how does the GI50 (HOP-18) read?
Answer: > 100 µM (inactive)

Question: And the GI50 (KM-20L2)?
Answer: > 100 µM (inactive)

Question: Which GI50 (HOP-18) does the source give for `COc1ccc(/C=N/n2cnc3c(c2=O)SC(=C(C#N)C#N)N3c2ccccc2)cc1` here?
Answer: 50.7 µM (inactive)

Question: With `COc1cc2cc[n+]3c(C)c4cc(OC)c(OC)cc4c([O-])c3c2cc1OC` as the compound, how does the GI50 (KM-20L2) read?
Answer: 53.2 µM (inactive)

Question: With `O=C1C(Cl)N(c2ccc(Cl)cc2)C1c1c[nH]c2ccccc12` (stereo not given) as the compound, how does the GI50 (KM-20L2) read?
Answer: 13.2 µM (inactive)

Question: Which GI50 (BT-549) does the source give for `COc1ccc(-c2c3c(nc4nc(SCC(=O)c5ccc(Br)cc5)nc(N)c24)CCCC3)cc1OC` here?
Answer: 80 µM (inactive)

Question: And the GI50 (PC-3)?
Answer: > 100 µM (inactive)

Question: And the GI50 (MDA-N)?
Answer: > 100 µM (inactive)

Question: And the GI50 (Hs-578T)?
Answer: 15.3 µM (inactive)

Question: And the GI50 (DU-145)?
Answer: > 100 µM (inactive)

Question: What does the source list for `NC(Cc1ccccc1CP(=O)(O)O)C(=O)O` (stereo not given)?
Answer: GI50 (BT-549): > 100 µM (inactive); GI50 (PC-3): > 100 µM (inactive); GI50 (MDA-N): > 100 µM (inactive); GI50 (Hs-578T): > 100 µM (inactive); GI50 (DU-145): > 100 µM (inactive)

Question: `COc1ncnc2c(Cl)c(C(O)c3ccccc3)c(Cl)cc12` (stereo not given) was tested. Which GI50 (BT-549) did it give?
Answer: 20.6 µM (inactive)

Question: And the GI50 (PC-3)?
Answer: 27.4 µM (inactive)

Question: What about the GI50 (MDA-N) of the same compound?
Answer: 5.16 µM (inactive)

Question: What about the GI50 (Hs-578T) of the same compound?
Answer: 19.6 µM (inactive)

Question: What about the GI50 (DU-145) of the same compound?
Answer: 60.4 µM (inactive)

Question: What does the source list for `CCC(C)(NC(=O)C(C)NC(=O)OC(C)(C)C)C(=O)NC(C)C(=O)NC(C)(CC)C(=O)ON=C1CCCC1` (stereo not given) (Boc-A[Iva]A[Iva]-X54; configuration not given here)?
Answer: GI50 (BT-549): > 100 µM (inactive); GI50 (PC-3): > 100 µM (inactive); GI50 (MDA-N): > 100 µM (inactive); GI50 (Hs-578T): > 100 µM (inactive); GI50 (DU-145): > 100 µM (inactive)

Question: Which results are given for `CCOC(=O)c1ccc(N2C(=O)/C(=C/c3ccc(N(CCC#N)CCC#N)cc3)N=C2c2cc([N+](=O)[O-])ccc2Cl)cc1`?
Answer: GI50 (HOP-18): > 100 µM (inactive); GI50 (RXF 631): > 100 µM (inactive); GI50 (KM-20L2): > 100 µM (inactive)

Question: With `C[C@@H]1C[C@]2(C[C@@H](C)[C@H]3C(C[C@@]4(C)CCC[C@@H]5C6=C[C@H](CCC34C)OC6=CC(=O)OC5(C)C)O2)OC1=O` (stereo not given in full) as the compound, how does the GI50 (HOP-18) read?
Answer: > 51.5 µM (inactive)

Question: And the GI50 (KM-20L2)?
Answer: > 51.5 µM (inactive)

Question: What does the source list for `CCOC(=O)C1=C(C)N(C2OC(COC(C)=O)C(OC(C)=O)C(OC(C)=O)C2OC(C)=O)C(=O)NC1c1ccccc1` (stereo not given)?
Answer: GI50 (HOP-18): > 100 µM (inactive); GI50 (RXF 631): > 100 µM (inactive); GI50 (KM-20L2): > 100 µM (inactive)

Question: Which results are given for `O=C1C(CO)=C[C@H](O)[C@H]2O[C@@H]12`?
Answer: GI50 (HOP-18): > 625 µM (inactive); GI50 (KM-20L2): 337 µM (inactive)

Question: `CC(=O)c1ccc(Oc2ccc(/C(C)=N\N=C(N)N)cc2)cc1` was tested. Which GI50 (KM-20L2) did it give?
Answer: 1.71 µM (inactive)

Question: `COc1cc(C(O)(CC#N)c2cc3c(cc2Br)OCO3)cc(OC)c1OC` (stereo not given) was tested. Which GI50 (BT-549) did it give?
Answer: > 100 µM (inactive)

Question: And the GI50 (PC-3)?
Answer: 28.1 µM (inactive)

Question: And the GI50 (MDA-N)?
Answer: 5.07 µM (inactive)

Question: What about the GI50 (DU-145) of the same compound?
Answer: 33.5 µM (inactive)

Question: With `CC1=NN(C(=O)c2ccc(C)cc2)C(=O)C1/N=N/c1ccccc1C(=O)O` (stereo not given) as the compound, how does the GI50 (HOP-18) read?
Answer: > 100 µM (inactive)

Question: And the GI50 (KM-20L2)?
Answer: > 100 µM (inactive)
